Assay [1] addresses T1, R77C-α-SG (Homo sapiens, UniProt Q16586, R77C).
T1 construct: The full-length cDNA encoding human α-sarcoglycan cloned in the pcDNA3 mammalian expression vector; expressed in transfected cells; host or cells: βγδ-cells (HER911 cells stably expressing β-, γ- and δ-sarcoglycan)
T1 sequence (Q16586 24-387 R77C): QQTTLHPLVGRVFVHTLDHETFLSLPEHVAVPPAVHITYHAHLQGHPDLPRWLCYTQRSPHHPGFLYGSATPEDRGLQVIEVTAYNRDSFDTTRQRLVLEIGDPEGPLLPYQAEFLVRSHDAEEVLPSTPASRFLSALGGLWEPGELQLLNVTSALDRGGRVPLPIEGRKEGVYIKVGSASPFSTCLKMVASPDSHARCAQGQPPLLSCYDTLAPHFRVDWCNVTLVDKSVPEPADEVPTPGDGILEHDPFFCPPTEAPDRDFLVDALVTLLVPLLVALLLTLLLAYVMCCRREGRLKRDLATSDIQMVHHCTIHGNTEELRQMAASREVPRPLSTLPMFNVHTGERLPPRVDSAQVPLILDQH
The experiment in a line: Western blot and densitometry of α-SG content in βγδ-cells transiently expressing R77C-α-SG. In kind it is cell-based. The following applies: single corrector, C17 10 μM or C4 5 μM, 24 hours. As for the experimental part: (§1) For transient expression, HEK 293 cells were seeded at 50,000 cells/cm2 and transfected the day after with Transit293 (MirusBio) according to manufacturer's instruction. Twenty-four hours after transfection, medium was replaced with DMEM supplemented with 2% FBS containing the indicated concentration of correctors (dissolved in DMSO) or with DMSO alone (final DMSO concentration 0.1%). HER911 or βγδ-cells cells were seeded at 50,000 cells/cm2 and transfected the day after with 9 μl of Fugene HD Transfection Reagent (E2312 from Promega) and 3 μg of plasmid coding for wild type or mutated α-SG. MG132 was added 8 hours before cell lysis, CFTR correctors were added 24 hours before cell lysis or IF assay (transfected HEK293, V247M cells, HER911 and βγδ-cells) and 24-96 hours before myotubes lysis, treatment with CHX or IF assay.
After treatments, cells were washed twice with ice cold PBS and lysed with 5% sodium deoxycholate supplemented with complete protease inhibitor (Sigma-Aldrich).
Protein lysates were quantified by the bicinchoninic-acid protein assay kit (Thermo Scientific), according to manufacturer's instructions. […] After 1-hour incubation with donkey anti-rabbit IRDye680 and anti-mouse IRDye800 antibodies (EuroBio) at room temperature, proteins were detected by fluorescence in an Odissey imaging system (Li-Cor) following the manufacturer's instructions. […]

In assay [2] the target is T1, R77C-α-SG. The assay can be described thus: Immunofluorescence of membrane α-SG in intact βγδ-cells expressing R77C-α-SG (confocal, ImageXpress). In kind it is cell-based. Conditions: single corrector, 24 hours. The procedure:
as §1
Immunofluorescence-confocal analyses were performed either in intact cells (not permeabilized) or in permeabilized cells. For the former condition, cells, grown on polylysine-treated glasses, at the end of treatments were incubated for 30 minutes at 4° C., then gently washed twice with ice-cold PBS and incubated with primary antibodies for 5 hours at 4° C. […]
Quantification of the mean fluorescence intensity of membrane staining of […] transfected with R77C-α-SG was performed by using ImageXpress microscope system (Molecular Devices). […]

On to `COc1ccc(Cl)cc1Nc1nc(-c2sc(NC(=O)c3ccccc3)nc2C)cs1` [C4, N-[2-(5-Chloro-2-methoxy-phenylamino)-4′-methyl-[4,5′]bithiazolyl-2′-yl]-benzamide], for which the R77C-α-SG protein content result on R77C-α-SG [1] was “three to four-fold increase”. In addition, the “localization of rescued R77C-α-SG at the plasma membrane (confocal IF, not-permeabilized cells)” value at R77C-α-SG [2] is given as “intense cell-surface staining”.

Turning to `COc1ccc(Cl)cc1Nc1nc(-c2sc(NC(=O)C(C)(C)C)nc2C)cs1` [C17, N-(2-(5-chloro-2-methoxyphenylamino)-4′-methyl-4,5′-bithiazol-2′-yl)pivalamide], the R77C-α-SG protein content result at R77C-α-SG [1] is “three to four-fold increase”. The “localization of rescued R77C-α-SG at the plasma membrane (confocal IF, not-permeabilized cells)” value on R77C-α-SG [2] is reported as “intense cell-surface staining”.

For the origin of these results see patent publication US11298348B2, “Combination treatment of sarcoglycanopathies” (INSERM (INSTITUT NATIONAL DE LA SANTE ET DE LA RECHERCHE …, priority 2018, dated 2022).
